Experimental data: ChEMBL document CHEMBL1201862, “PubChem BioAssay data set” (2004)
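Step 1: Grow cells in 96-well plates. Step 2: Expose to compound for 48 hours at 5 concentrations. Step 3: Interpolate endpoints linearly; if unreached, use highest concentration. GI50: concentration for 50% inhibition of growth.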 Activity calls are given as the source filed them. Rule as the data show it: active = GI50 up to about 1.1 µM and inactive = higher.

Legend:
Test in all cases: NCI tumour cell line growth inhibition, 48 h
BT-549 = test system: BT-549
DLD-1 = test system: DLD-1
DMS-114 = test system: DMS-114
DMS-273 = test system: DMS-273
HOP-18 = test system: HOP-18
LXFL 529 = test system: LXFL 529
M19-MEL = test system: M19-MEL
SNB-78 = test system: SNB-78

For CC1=NN(c2cccc(Cl)c2)C2(SCC(=O)N2c2nc3ccccc3s2)/C1=C\c1cccs1 (stereo not given), the GI50 (BT-549) was 17.6 µM (inactive).
For CC1(C)OCC2OC(n3cnc4c(N)nc(Cl)nc43)C(OS(C)(=O)=O)C2O1 (stereo not given), the GI50 (BT-549) was > 100 µM (inactive).
CC(=O)OC1CC2C(=O)C(=O)C1(C)C2(C)C (stereo not given) was tested, and the GI50 (BT-549) was > 100 µM (inactive).
With CC(C(=O)ON1C(=O)CCC1=O)c1ccc(C(=O)c2ccccc2)s1 (stereo not given) the GI50 (BT-549) was > 100 µM (inactive).
CC(C)(Cl)C(Cl)CC/C(CBr)=C(\Cl)CCl (stereo not given) was tested, and the GI50 (BT-549) was 1.84 µM (inactive).
For COc1ccc(-c2cn3ccsc3n2)cc1, the GI50 (DLD-1) was > 100 µM (inactive), the GI50 (DMS-114) was 47.8 µM (inactive) and the GI50 (DMS-273) was > 100 µM (inactive). The GI50 (HOP-18) was > 100 µM (inactive), the GI50 (LXFL 529) was > 100 µM (inactive) and the GI50 (M19-MEL) was > 100 µM (inactive). The GI50 (SNB-78) was > 100 µM (inactive).
In the case of Cc1cccc(C)c1NC(=S)NC=C(C(N)=O)C(N)=O, the GI50 (BT-549) is reported as > 100 µM (inactive).
In the case of O=c1c2cc([N+](=O)[O-])ccc2oc2nc3n(c(=O)c12)CCCS3, the GI50 (BT-549) is reported as > 100 µM (inactive).
For CN(C)/C=N\c1nc(=O)n(C2CCC(CO)O2)cc1F (stereo not given), the GI50 (DLD-1) was > 100 µM (inactive), the GI50 (DMS-273) was > 100 µM (inactive) and the GI50 (HOP-18) was > 100 µM (inactive). For the same compound, the GI50 (LXFL 529) was > 100 µM (inactive) and the GI50 (SNB-78) was 95.9 µM (inactive).
In the case of CC(C)C1(Cl)CCC2C3(C)CCCC(C)(C(=O)O)C3CC(Cl)C2(Cl)C1Cl (stereo not given), the GI50 (BT-549) is reported as 48.8 µM (inactive).
CC1S/C(=N/c2nnc(-c3ccccc3)o2)NC1=O (stereo not given) was tested, and the GI50 (BT-549) was 71.4 µM (inactive).
With OC1(c2ccc(-c3ccccc3)cc2)c2ccccc2C2=NCCN21 (stereo not given) the GI50 (BT-549) was > 100 µM (inactive).
With Cc1nn(C)c(=O)c2nn(-c3ccccc3)c(C)c12 the GI50 (DLD-1) was > 100 µM (inactive), the GI50 (DMS-114) was > 100 µM (inactive) and the GI50 (DMS-273) was > 100 µM (inactive). The GI50 (HOP-18) was > 100 µM (inactive), the GI50 (LXFL 529) was > 100 µM (inactive) and the GI50 (M19-MEL) was > 100 µM (inactive). The GI50 (SNB-78) was > 100 µM (inactive).
CCOC(=O)n1c(=O)nc2c3c(ncn21)Oc1c(c(-c2ccccc2)nn1-c1ccccc1)C3c1ccc(Cl)cc1 (stereo not given) was tested, and the GI50 (BT-549) was 1.57 µM (inactive).
COC(=O)C(C(=O)C(=O)Nc1ccc([N+](=O)[O-])cc1)c1nc2cc(C)c(C)cc2nc1O (stereo not given) was tested, and the GI50 (DLD-1) was > 100 µM (inactive), the GI50 (DMS-114) was > 100 µM (inactive) and the GI50 (HOP-18) was > 100 µM (inactive). The GI50 (LXFL 529) was > 100 µM (inactive), the GI50 (M19-MEL) was > 100 µM (inactive) and the GI50 (SNB-78) was > 100 µM (inactive).
For N/C(S)=N/N=C/c1ncccc1O, the GI50 (BT-549) was 3.47 µM (inactive), the GI50 (DLD-1) was 2.26 µM (inactive) and the GI50 (DMS-273) was 0.508 µM (active). The GI50 (HOP-18) was 2.25 µM (inactive), the GI50 (LXFL 529) was 2.75 µM (inactive) and the GI50 (M19-MEL) was 1.91 µM (inactive). The GI50 (SNB-78) was 81.8 µM (inactive).
Cc1c2cccc-2c2cc(O)c3ccccc3c2n1-c1ccc(N(C)C)cc1 was tested, and the GI50 (BT-549) was 10.7 µM (inactive).
COC(=O)C1C(C(=O)OC)C2(OC(c3ccc(Cl)cc3)=CC2=O)C12OC(c1ccc(Cl)cc1)=CC2=O (stereo not given) was tested, and the GI50 (BT-549) was 16.4 µM (inactive).
In the case of COC(=O)C1=C(c2ccc3c(c2)OCO3)OC(c2cc(OC)c(OC)c(OC)c2)C1 (stereo not given), the GI50 (DLD-1) is reported as 3.58 µM (inactive), the GI50 (DMS-114) is reported as 2.49 µM (inactive) and the GI50 (DMS-273) is reported as 1.89 µM (inactive). For the same compound, the GI50 (HOP-18) was 16.3 µM (inactive), the GI50 (LXFL 529) was 4.79 µM (inactive) and the GI50 (M19-MEL) was 4.86 µM (inactive). The GI50 (SNB-78) was 10.4 µM (inactive).
For CC(=O)CC(=O)Nn1c(-c2cccs2)nc2ccc(I)cc2c1=O, the GI50 (BT-549) was > 35.9 µM (inactive).
For COc1cc(C(=O)OCCn2[nH]c(-c3ccc(Cl)cc3)nc2=S)cc(OC)c1OC, the GI50 (BT-549) was 31.3 µM (inactive).
In the case of COC(=O)/C=C(\S/C(=N\n1cc(C(=O)OC)c(C(=O)OC)c1-c1ccc(C)cc1)c1ccc(C)cc1)C(=O)OC, the GI50 (BT-549) is reported as 7.23 µM (inactive).
